This is an account of results in patent US8889370B2, “Method of determining inhibitors of coagulation” (Siemens Healthcare Diagnostics Products GmbH, priority 2010, dated 2014).

One experiment addresses thrombin (Homo sapiens, UniProt P00734). Set-up: binding constant for thrombin: unit not given here. To be noted: cited from earlier work.
Experiment [1] addresses T1, F Xa (Homo sapiens, UniProt P00742). The experiment can be described thus: LOCI chemiluminescence competition assay for F Xa inhibitors in standard human plasma, ligand B-r-G-R-H. Type of experiment: binding. Set-up: 10 μl of a reagent containing human F Xa (approx. 1000 IU/l). To be noted: standard human plasma with increasing inhibitor concentrations, anti-F Xa antibody-coated Chemibeads, FIG. 9. The procedure: The signal-producing system used was the LOCI system according to example 4.
The Chemibeads used herein were additionally coated with a commercially available polyclonal antibody to F Xa. For this, the antibody was linked covalently to the latex particles in a coupling ratio of 10 mg of antibody to […] of particles. The Sensibeads used herein were additionally coated with streptavidin.
The ligand used was the biotinylated peptide aldehyde biotinyl-Ttds-D-Arg-Gly-Arg-H (B-r-G-R—H).
In the absence of an F Xa inhibitor, the ligand binds, via its biotin residue, to the streptavidin-coated Sensibeads and, via its peptide moiety, to the F Xa which itself binds to the antibody-coated Chemibeads, and a chemiluminescence signal is generated (see also FIG. 1).
10 μl of a reagent containing human F Xa (approx. 1000 IU/l) and fibrin polymerization inhibitor peptide glycine-proline-arginine-proline (10 mg/ml) were admixed with 2 μl of sample, 20 μl of Chemibeads (400 μg/ml) and 10 μl of the ligand (6 μM) and incubated for 5 minutes. After addition of 60 μl of Sensibeads (200 μg/ml) and incubation for 10 minutes, the mix was filled with water to 260 μl and the chemiluminescence signal was measured. As FIG. 9 indicates, the chemiluminescence signal is reduced as a function of the type and concentration of the direct F Xa and thrombin inhibitors metered in.

Experiment [2] concerns the target T1, F Xa. To be noted: Prasa et al. 1997; Perzborn 2009; read-out: binding constant for F Xa; cited from earlier work.

Regarding hirudin, on thrombin (Prasa et al. 1997), the “binding constant for thrombin” value is given as 2.7×10^−14. At F Xa [1], the chemiluminescence signal result was “not reduced”.

As for `CC1CNc2c(cccc2S(=O)(=O)N[C@@H](CCCNC(=N)N)C(=O)N2CC[C@@H](C)C[C@@H]2C(=O)O)C1` (stereo partly drawn) [argatroban], the Ki at F Xa [2] was 210 µM. Further, the chemiluminescence signal result at F Xa [1] is recorded as “not reduced”.

Consider `O=C(NC[C@H]1CN(c2ccc(N3CCOCC3=O)cc2)C(=O)O1)c1ccc(Cl)s1` [rivaroxaban], for which the “binding to thrombin, times more weakly than to F Xa” value on thrombin (Perzborn 2009) was “up to 10 000 times”. The chemiluminescence signal entry at F Xa [1] is listed as “inversely proportional”.
